The values that follow come from patent US20100029598A1, “Extended Benzamide Derivatives as Modulators of the EP2 Receptor” (Bayer Schering Pharma AG, priority 2008, published 2010).

Test [1] deals with T1, human Prostaglandin E2 (Subtype EP2) receptor (Homo sapiens, UniProt P43116).
T1 construct: host or cells: cells in a cell culture plate
The test can be described thus: cAMP antagonism assay (HTRF cAMP detection, in presence of PGE2). In kind it is cell-based. Conditions: cAMP antagonism test. An excerpt: 1. Detection of the Antagonism of the Human Prostaglandin E2 (Subtype EP2) Receptor Signal
1.1 Principle of Detection
(§1) The binding of PGE2 to the EP2 subtype of the human PGE2 receptor induces activation of membrane-associated adenylate cyclases and leads to the formation of cAMP. In the presence of the phosphodiesterase inhibitor IBMX, cAMP which has accumulated due to this stimulation and been released by cell lysis is employed in a competitive detection method. In this assay, the cAMP in the lysate competes with cAMP-XL665 for binding of an Eu cryptate-labelled anti-cAMP antibody.
(§2) The two lo signals are measured in a suitable measuring instrument with a time lag, i.e. after the background fluorescence has declined.
1.2.1 Antagonism assay (data for each well of a 384-well plate):
The substance solutions (0.75 μl) introduced into an assay plate and 30% DMSO were dissolved in 16 μl of a KRSB+IBMX stimulation solution (1×Krebs-Ringer Bicarbonate Buffer; Sigma-Aldrich # K-4002; including 750 μM 3-isobutyl-1-methylxanthine Sigma-Aldrich # I-7018), and then 15 μl thereof were transferred into a media-free cell culture plate which had been washed with KRSB shortly beforehand.
After preincubation at room temperature (RT) for 30 minutes, 5 μl of a 4×PGE2 solution (11 nM) were added, and incubation was carried out in the presence of the agonist at RT for a further 60 min (volume: ˜20 μl) before the reaction was then stopped by adding 5 μl of lysis buffer and incubated at RT for a further 20 min (volume: ˜25 μl). The cell lysate was then transferred into a measuring plate and measured in accordance with the manufacturer's information (cyclic AMP kit Cisbio International #62AMPPEC).

In test [2] the test system is cumulus-oocyte complexes (cumulus expansion). The test can be described thus: Cumulus expansion assay in vitro. It counts as cell-based, mice. The settings on record: competing with PGE2. Here is the method:
2.2 Cumulus Expansion Assay In Vitro
Folliculogenesis was induced in immature female mice (strain : CD1 (ICR) from Charles River) at an age of 14-18 days by a single dose (intraperitoneal) of 10 I.U. of PMSG (Pregnant Mare Serum Gonadotropin; Sigma G-4877, Lot 68H0909). 47-50 hours after the injection, the ovaries were removed and the cumulus-oocyte complexes were removed. The cumulus complex is not yet expanded at this stage.
The cumulus-oocyte complexes were then incubated with prostaglandin E2 (PGE2) (0.3 μM), vehicle control (ethanol) or test substances for 20-24 hours.
Medium: alpha-MEM medium with 0.1 mM IBMX, pyruvates (0.23 mM) glutamines (2 mM), pen/strep 100 IU/ml pen. and 100 μg/ml strep. and HSA (8 mg/ml). Cumulus expansion was then established through the division into four stages (according to Vanderhyden et al. Dev Biol. August 1990;140(2):307-317).

Test [3] has as its target T1, human Prostaglandin E2 (Subtype EP2) receptor. The experiment in a line: cAMP agonism assay (cellular agonism test). It counts as cell-based.
From the text: as §1, §2
1.2.2 Agonism Assay (Data for each Well of a 384-Well Plate): […]
After incubation at room temperature (RT; volume: ˜15 μl) for 60 minutes, the reaction was then stopped by adding 5 μl of lysis buffer and incubated at RT for a further 20 min (volume: ˜20 μl). The cell lysate was then transferred into a measuring plate and measured in accordance with the manufacturer's instructions (cyclic AMP kit Cisbio International #62AMPPEC).

T1 sequence (P43116 whole entry): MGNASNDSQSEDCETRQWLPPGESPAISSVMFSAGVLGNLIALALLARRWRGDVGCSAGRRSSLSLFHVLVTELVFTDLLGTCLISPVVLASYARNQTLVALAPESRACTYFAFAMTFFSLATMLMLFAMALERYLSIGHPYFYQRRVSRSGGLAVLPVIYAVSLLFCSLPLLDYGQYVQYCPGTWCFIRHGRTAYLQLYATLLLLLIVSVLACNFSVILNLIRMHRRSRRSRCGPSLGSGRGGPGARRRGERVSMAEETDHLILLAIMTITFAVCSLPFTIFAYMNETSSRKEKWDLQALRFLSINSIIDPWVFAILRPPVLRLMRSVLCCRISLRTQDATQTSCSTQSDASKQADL

On to `Cc1[nH]c2c(Cl)ccc(F)c2c1CCNC(=O)c1cc2cc(F)ccc2[nH]1` [Example 8, N-[2-(7-chloro-4-fluoro-2-methyl-1H-indol-3-yl)ethyl]-5-fluoro-1H-indole-2-carboxamide], for which the IC50 in test [1] is 120 nM. The “suppression of cumulus expansion” value in test [2] (concentration 5 μM) was “approx. 60%”.
As for `COc1ccc(C(=O)NCCc2c(C)[nH]c3c(Cl)cccc23)cc1OC` [Example 1, N-[2-(7-chloro-2-methyl-1H-indol-3-yl)ethyl]-3,4-dimethoxy-benzamide], the IC50 in test [1] was 320 nM.
Still for that read-out and setting: next, `COc1ccc(C(=O)NCCc2c(C)[nH]c3c(Cl)ccc(Cl)c23)cc1OC` [Example 5, N-[2-(4,7-dichloro-2-methyl-1H-indol-3-yl)ethyl]-3,4-dimethoxybenzamide]: 1900 nM.
Same read-out and setting: then `COc1ccc(C(=O)NCCc2c(C)[nH]c3c(Cl)ccc(C)c23)cc1OC` [Example 17, N-[2-(7-chloro-2,4-dimethyl-1H-indol-3-yl)ethyl]-3,4-di-methoxybenzamide], with 720 nM.
On to `Cc1[nH]c2c(Cl)cccc2c1CCNC(=O)c1cc2cc(F)ccc2[nH]1` [Example 7, N-[2-(7-chloro-2-methyl-1H-indol-3-yl)ethyl]-5-fluoro-1H-indole-2-carboxamide], for which the IC50 in test [1] amounted to 47 nM. Further, in test [3], the “effect in the cellular agonism test” value was “no inhibition”.
Turning to `O=C(NCCc1c(C(F)(F)F)[nH]c2c(Cl)cccc12)c1cc2cc(Cl)ccc2[nH]1` [Example 30, N-[2-(7-chloro-2-trifluoromethyl-1H-indol-3-yl)ethyl]-5-chloro-1H-indole-2-carboxamide], the IC50 in test [1] came to 670 nM.
For the compound `CC(C)Oc1ccc2c(=O)c3cc(C(=O)O)ccc3oc2c1` [AH 6809, reference compound], the “suppression of cumulus expansion” value in test [2] (concentration of 100-200 μM) was “approx. 30%”.

The term IC50 denotes the midpoint of a concentration-inhibition curve.
